In ChEMBL document CHEMBL2163289, “The discovery of N-[5-(4-bromophenyl)-6-[2-[(5-bromo-2-pyrimidinyl)oxy]ethoxy]-4-pyrimidinyl]-N'-propylsulfamide (Macitentan), an orally active, potent dual endothelin receptor antagonist” (J Med Chem, 2012):
Activity calls are given as the source filed them. The rule behind the calls is not given here.

Experiments:
Rattus norvegicus [1] = assay: Effect on heart rate in telemeterized hypertensive Dahl salt-sensitive rat at 3 mg/kg, po
Rattus norvegicus [2] = assay: Antihypertensive activity in telemeterized hypertensive Dahl salt-sensitive rat assessed as reduction in mean arterial blood pressure at 100 mg/kg, po measured over 6 hrs; type: functional, Artery
Rattus norvegicus [3] = assay: Antihypertensive activity in telemeterized hypertensive Dahl salt-sensitive rat assessed as duration of mean arterial blood pressure lowering action at 3 mg/kg, po; type: functional, Artery
Rattus norvegicus [4] = assay: Antihypertensive activity in telemeterized hypertensive Dahl salt-sensitive rat assessed as duration of mean arterial blood pressure lowering action at 100 mg/kg, po; type: functional, Artery
Rattus norvegicus [5] = assay: Antihypertensive activity in telemeterized hypertensive Dahl salt-sensitive rat assessed as reduction in mean arterial blood pressure at 3 mg/kg, po measured over 6 hrs; type: functional, Artery
Rattus norvegicus [6] = assay: Toxicity in telemeterized hypertensive Dahl salt-sensitive rat assessed as tachyphylaxis at 1 mg/kg, po administered QD for 5 days; type: organism-based; set-up: dose 1 mg/kg, route oral; details: in vivo, 120 h
Rattus norvegicus [7] = assay: Antihypertensive activity in telemeterized hypertensive Dahl salt-sensitive rat assessed as reduction in mean arterial blood pressure at 1 mg/kg, po administered QD for 5 days measured 48 hrs post last-dose; details: Artery
[8] = Half life in beagle dog at 1 mg/kg, iv; type: ADME, organism-based, Canis lupus familiaris; set-up: dose 1 mg/kg, route intravenous; details: in vivo
[9] = Cmax in beagle dog at 10 mg/kg, po; type: ADME, organism-based, Canis lupus familiaris; set-up: dose 10 mg/kg, route oral; details: in vivo
[10] = AUC (0 to infinity) in beagle dog at 1 mg/kg, iv; type: ADME, organism-based, Canis lupus familiaris; set-up: dose 1 mg/kg, route intravenous, time infinity; details: plasma
Rattus norvegicus [11] = assay: Antihypertensive activity in telemeterized hypertensive Dahl salt-sensitive rat assessed as reduction in mean arterial blood pressure at 1 mg/kg, po administered QD for 5 days; type: functional, Artery
Rattus norvegicus [12] = assay: Effect on heart rate in telemeterized hypertensive Dahl salt-sensitive rat at 1 to 100 mg/kg, po
[13] = Tmax in beagle dog at 10 mg/kg, po; type: ADME, organism-based, Canis lupus familiaris; set-up: dose 10 mg/kg, route oral; details: in vivo
Rattus norvegicus [14] = species on record: Rattus norvegicus; assay: Toxicity in rat assessed as inhibition of bile salt transport; type: organism-based; details: in vivo
[15] = Clearance in beagle dog at 1 mg/kg, iv; type: ADME, organism-based, Canis lupus familiaris; set-up: dose 1 mg/kg, route intravenous; details: in vivo
[16] = AUC (0 to infinity) in Wistar rat at 10 mg/kg, po; type: ADME, organism-based; set-up: time infinity, dose 10 mg/kg, route oral; details: plasma
Canis familiaris = species on record: Canis familiaris; assay: Drug metabolism in beagle dog assessed as N-[5-(4-Bromophenyl)-6-[2-[(5-bromo-2-pyrimidinyl)oxy]ethoxy]-4-pyrimidinyl]-sulfamide formation; type: ADME, organism-based, Canis lupus familiaris; details: in vivo
Endothelin-1 receptor = target: T1, Endothelin-1 receptor (Homo sapiens, UniProt P25101); assay: Displacement of [I125]ET1 from recombinant ETA receptor expressed in CHO cells after 2 hrs by TopCount analysis; type: cell-based
T1 sequence (P25101 whole entry): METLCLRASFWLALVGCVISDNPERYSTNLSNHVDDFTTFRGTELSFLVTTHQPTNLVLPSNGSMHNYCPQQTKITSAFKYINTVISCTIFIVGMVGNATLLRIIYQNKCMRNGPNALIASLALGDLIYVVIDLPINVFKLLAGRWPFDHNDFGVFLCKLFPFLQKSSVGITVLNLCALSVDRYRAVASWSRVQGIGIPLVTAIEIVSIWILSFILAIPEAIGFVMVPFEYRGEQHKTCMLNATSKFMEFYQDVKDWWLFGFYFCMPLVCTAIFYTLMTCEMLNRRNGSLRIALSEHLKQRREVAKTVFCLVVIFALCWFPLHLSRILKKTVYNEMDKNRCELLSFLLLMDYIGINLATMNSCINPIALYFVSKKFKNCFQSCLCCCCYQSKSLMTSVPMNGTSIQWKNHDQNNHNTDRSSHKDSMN

[17] = Half life in Wistar rat at 1 mg/kg, iv; type: ADME, organism-based; set-up: dose 1 mg/kg, route intravenous; details: in vivo
[18] = AUC (0 to infinity) in beagle dog at 10 mg/kg, po; type: ADME, organism-based, Canis lupus familiaris; set-up: time infinity, dose 10 mg/kg, route oral; details: plasma
[19] = Oral bioavailability in Wistar rat at 10 mg/kg; type: ADME, organism-based; details: in vivo
[20] = Oral bioavailability in beagle dog at 10 mg/kg; type: ADME, organism-based, Canis lupus familiaris; details: in vivo
[21] = Volume of distribution at steady state in beagle dog at 1 mg/kg, iv; type: ADME, organism-based, Canis lupus familiaris; set-up: dose 1 mg/kg, route intravenous; details: in vivo, read-out: Vdss
Rattus norvegicus [22] = assay: Antihypertensive activity in po dosed telemeterized hypertensive Dahl salt-sensitive rat assessed as reduction in mean arterial blood pressure; details: Artery
[23] = Tmax in Wistar rat at 10 mg/kg, po; type: ADME, organism-based; set-up: dose 10 mg/kg, route oral; details: in vivo
[24] = AUC (0 to infinity) in Wistar rat at 1 mg/kg, iv; type: ADME, organism-based; set-up: time infinity, dose 1 mg/kg, route intravenous; details: plasma
[25] = Volume of distribution at steady state in Wistar rat at 1 mg/kg, iv; type: ADME, organism-based; set-up: dose 1 mg/kg, route intravenous; details: in vivo, read-out: Vdss
[26] = Cmax in Wistar rat at 10 mg/kg, po; type: ADME, organism-based; set-up: dose 10 mg/kg, route oral; details: in vivo
Rattus norvegicus [27] = species on record: Rattus norvegicus; assay: Drug metabolism in Wistar rat assessed as N-[5-(4-Bromophenyl)-6-[2-[(5-bromo-2-pyrimidinyl)oxy]ethoxy]-4-pyrimidinyl]-sulfamide formation; type: ADME, organism-based; details: in vivo
[28] = Clearance in Wistar rat at 1 mg/kg, iv; type: ADME, organism-based; set-up: dose 1 mg/kg, route intravenous; details: in vivo

SMILES: COc1ccccc1Oc1c(NS(=O)(=O)c2ccc(C(C)(C)C)cc2)nc(-c2ncccn2)nc1OCCO [BOSENTAN]
- Activity (Rattus norvegicus [1]): inactive
- MPE (Rattus norvegicus [2]): 30 mmHg
- Time (Rattus norvegicus [3]): 15 h
- Time (Rattus norvegicus [4]): 72 h
- Fall in mean arterial blood pressure (Rattus norvegicus [5]): 7 mmHg

SMILES: CCCNS(=O)(=O)Nc1ncnc(OCCOc2ncc(Br)cn2)c1-c1ccc(Br)cc1
- Activity (Rattus norvegicus [6]): Non-toxic
- Activity (Rattus norvegicus [7]): Active
- half-life [8]: 4.1 h
- Cmax [9]: 4590 ng/mL
- AUC(0-inf) [10]: 3170 ng·h/mL
- MPE (Rattus norvegicus [11]): 20 mmHg
- Activity (Rattus norvegicus [12]): inactive
- Tmax [13]: 2 h
- Activity (Rattus norvegicus [14]): Non-toxic
- clearance [15]: 5.4 mL/min/kg
- AUC(0-inf) [16]: 18500 ng·h/mL
- Drug metabolism (Canis familiaris): Active
- IC50 (Endothelin-1 receptor): 0.5 nM
- half-life [17]: 5.1 h
- AUC(0-inf) [18]: 27500 ng·h/mL
- bioavailability [19]: 69%
- bioavailability [20]: 87%
- Time (Rattus norvegicus [3]): 60 h
- Vd [21]: 0.9 L/kg
- Activity (Rattus norvegicus [22]): Dose-dependent effect
- Tmax [23]: 6 h
- AUC(0-inf) [24]: 2680 ng·h/mL
- Vd [25]: 1.8 L/kg
- Cmax [26]: 1670 ng/mL
- Drug metabolism (Rattus norvegicus [27]): Active
- Fall in mean arterial blood pressure (Rattus norvegicus [5]): 25 mmHg
- clearance [28]: 6.7 mL/min/kg
